This is an account of results in patent US4876265A, “Process and compositions for controlling mites parasitizing on honey bees” (priority 1983, dated 1989).

Data set [1] has as its system honey-bee colonies. Kind of data set: Honey-bee colonies in northeastern Mexico, bee population. The data set is classed as in vivo. As to conditions: end of the test; P<0.05. The procedure:
(§1) Three groups of honey-bee colonies (N=30) located in northeastern Mexico are selected on the basis of the prevalence of Acarapis woodi parasitizing their workers. Lightly (≤10%), moderately (20-60%), and heavily (90-100%) infested colonies are randomly assigned to control or treated subgroups (N=15). Controls receive 50% sucrose syrup, and treated colonies receive syrup medicated with 0.3 mg/ml 2-(2,4-dimethylphenylimino)-3-methyl-4-thiazoline-hydrochloride, small, medium, and large colonies receive 300, 600, and 1000 ml of syrup, respectively. Syrup is fed three times at weekly intervals.

The subject of data set [2] is Acarapis woodi. The experiment in a line: Honey-bee colonies in northeastern Mexico, parasite load. The format is in vivo. As to conditions: 0.3 mg/ml in syrup, three times weekly, P<0.05. The procedure:
as §1

Data set [3] concerns Acarapis woodi. Kind of data set: Package bee colonies infested with Acarapis woodi, mite survival. The format is in vivo. The procedure:
(§2) Forty-two packages of honey bees (2 lbs.~907 g) are obtained from 22 colonies infested with Acarapis woodi. Infestations range from 60 to 100%. Each package is provided with a mated queen and 550 ml of treated or untreated 50% (wt/wt) sucrose syrup. All treated colonies receive syrup containing either 0.5 mg/ml (group B) or 1.0 mg/ml (group C) of 2-(2,4-dimethylphenylimino)-3-methyl-4-thiazoline hydrochloride. The control (group A) consists of 10 packages of bees and the treatment groups B and C of 16 packages each.
(§3) After installation on frames free of nectar and pollen, package colonies are examined at weekly intervals to determine food consumption, brood production and bee mortality. Random samples of ten bees/colony are examined on days 5, 12, 19, 26, 33 and 40. On day 0 and 5 bees are examined. Dissections and live mite determinations are made according to Eischen et al. (Am. Bee J. 127: 99-101, 1987).

Data set [4] deals with honey bees. The experiment in a line: Package bee colonies, brood production and food consumption. The format is in vivo, honey bee. As to conditions: 0.5 mg/ml and 1.0 mg/ml; more pronounced at the higher concentration. The procedure:
as §2, §3

Data set [5] relates to Varroa jacobsoni. The experiment in a line: Comparative test, lethal dosage for varroa mites. The data set is classed as in vivo. As to conditions: for LD50 in μg active ingredient/bee: oral, 10 μl sucrose suspension. An excerpt: Compounds (I), (A) and (B) are formulated in accordance with Example F-1.
The age distribution of the bees in the test group is identical with that in a normal hive. The bees used in the laboratory tests originate from colonies only slightly infested with nosema. All groups of bees are infected with varroatosis (Varroa jacobsoni). To test the tolerance by the bees and the acaricidal activity in the group, 40 bees from the same colony are placed with their brood in each cage. To achieve a better control, each cage is fitted with a pane of glass. A small piece of honeycomb (6×8 cm) is attached at the top of each cage to pacify the bees. During the test period, the bees are kept in a climatic chamber at 25° C. and 85% relative humidity. These conditions are chosen because they are maximally acceptable both for the mites and the bees: the parasitizing mites are least affected and the bees live sufficiently long. To test the systemic activity of the active substance, 4 bees--within a group of 40 bees--are each individually fed with 10 μl of a suspension of the active substance in a 50% aqueous solution of sucrose. The bees have not been fed for at least one hour so that feed with a higher dose can be more readily ingested. 3 to 4 doses are tested in each of 2 groups. In each test series, 2 groups are left untreated as controls.
24 and 48 hours after treatment, the activity on varroa mites is determined on the basis of mite mortality. For this purpose a tray (mesh width=2.4 mm) is fixed above the floor of each of the test cages. The mites which have dropped off the bees can thus be collected on paper which had been placed under the tray. 72 hours after treatment, the bees are sacrificed and then washed in benzine to determine the number of mites which have remained on them (method of determining the number of remaining mites according to Ritter, Apidologie, 1980, 11(2), 131-141).
Percentage mite mortality can be determined from the number of mites which have remained on the bees and the number which have dropped off. Using the Probit analysis (Cavalli-Sforza, Biometrie, G. Frischer Verlag, Stuttgart), the LD50 can be determined from the dosage-mortality curve.

Data set [6] concerns bees. The experiment in a line: Tests under natural conditions, bee mortality rate. The data set is classed as in vivo, honey bee. The following applies: overall; in the range of the untreated control group; 30240 min. An excerpt: 33 brood-less bee colonies (~20,000 bees) infested with varroa mites are divided into three groups and treated with 2-(2,4-dimethylphenylimino)-3-methylthiazoline in solutions of varying concentration, originating in one case from a 15% emulsion concentrate (EC-15) and in the other case from a 15% water-soluble powder (SP-15). In the latter case, the active ingredient I is in the form of a salt (cf. Formulation Examples).
All three groups A, B and C, each consisting of 11 colonies, receive during the time of treatment the same total amount of active ingredient.
In the following the applied amounts per bee way are given. Depending on the size of the bee colony, a beehive contains between 5 and 15 bee ways, so that the amount of active ingredient applied is correspondingly adjusted from hive to hive.
In each case 5 ml of a 4% aqueous solution or emulsion per bee way are sprayed onto a number of selected bees. The remaining bees provide for a uniform distribution of the active ingredient in the colony. The partial wetting procedure is repeated after 7 days and after 14 days (observation period 21 days). […]
The mites and bees that have died during and after the treatment are collected daily from a bottom tray. 21 days after the first application, the bee colonies are killed and the remaining number of mites is then determined (observation period 21 days).

In data set [7] the test system is Varroa jacobsoni. As to conditions: Thailand, 10 colonies each, four products; manufacturers' dose rates for Varroa-mite-treatment; cited from earlier work.
Data set [8] relates to bees. Kind of data set: Wetting method in the beehive, bees killed (tolerability). The data set is classed as in vivo, honey bee. As to the method: (§4) Six brood-less nuclei [small, manmade colonies of bees with usually 1000 to perhaps 5000 bees; see Morse and Hooper (1985), supra, Nucleus colony, p. 279] infested with varroa mites are treated three times, at intervals of 4 days, with a 0.5% aqueous solution of 2-(2,4-dimethylphenylimino)-3-methylthiazoline. The active substance is dissolved in the form of a concentrate formulation in water. 5 ml of the active substance solution are dropped onto a number of bees present in the bee ways of a beehive. The test is terminated 4 days after the last treatment, that is after a duration of 12 days. The mites and bees which have died in the course of the test are collected on a bottom tray covered with gauze, which has been inserted under the combs before commencement of the test. At the end of the test, the bees are killed, and the mites remaining on them are washed out in benzine and counted. For the evaluation, the number of dead mites and bees collected during the test is determined, the fact being taken into consideration that for the length of time of the test a natural mortality rate of about 0.5% of bees is to be expected.

Data set [9] has as its system varroa mites. The experiment in a line: Feeding method in the laboratory, varroa mite mortality. The data set is classed as in vivo. The following applies: 7 days. As to the method: Thirty bees infested with varroa mites are each individually fed with 10 μl of a sugar-containing solution of 2-(2,4-dimethylphenylimino)-3-methylthiazoline. […] After being fed, the bees are kept in groups each of 10 for 7 days in cages. The mites which in the course of the test have fallen off dead are collected in trays placed under the individual cages. The bees are subsequently killed and are examined for remaining mites. The counting of the mites that have fallen down and those remaining on the bees is carried out after 7 days.

For data set [10], the system named is Tropilaelaps clareae. The following applies: Thailand, 10 colonies each, four products; dose rates proposed for Varroa-mite-treatment; cited from earlier work.
The subject of data set [11] is varroa mites. The experiment in a line: Wetting method in the beehive, mites killed. The data set is classed as in vivo. The following applies: 0.5% aqueous solution, 5 ml dropped, three times at 4-day intervals; 12 days. As to the method: as §4

Regarding `Cc1ccc(N=c2sccn2C)c(C)c1.Cl` [2-(2,4-dimethylphenylimino)-3-methyl-4-thiazoline hydrochloride], in [1], the “bee population of medicated colonies versus controls” value is given as “significantly larger bee populations than controls”. Besides, the parasite load score was 0.63 in data set [2] (heavily infested (90-100%), control 1.13); 0.53 in data set [2] (lightly infested (≤10%), control 2.25); 0.84 in data set [2] (moderately infested (20-60%), control 3.43). Further, the “time at which efficacy is apparent” value in data set [3] (0.5 mg/ml and 1.0 mg/ml in syrup) is on record as 7 days. Moreover, the control of mites result in data set [3] (after 26 days) is “almost complete control of mites”. Also, in [3] (groups B (0.5 mg/ml) and C (1.0 mg/ml) in syrup, after 14 days), the Mite survival entry was “less than 1 live mite/trachea”. Further, in [3] (groups B (0.5 mg/ml) and C (1.0 mg/ml), after 26 days), the “live mites found in the tracheae of treated package bees” value is on record as “no live mites”. In addition, the “effect on honey bee larvae (spotty brood patterns)” value in [4] is listed as “detrimental to some honey bee larvae as spotty brood patterns are observed in several colonies”.
In the case of `CCn1ccsc1=Nc1ccc(C)cc1C` [Compound (A)], the “LD50 in μg active ingredient/bee” value in data set [5] (24 hours after application) and in [5] (48 hours after application) was 35 μg active ingredient/bee in each case.
On to `Cc1cccc(C)c1N=c1sccn1C` [Compound (B)], for which the “LD50 in μg active ingredient/bee” value in [5] (24 hours after application) and in data set [5] (48 hours after application) was 28 μg active ingredient/bee throughout.
Regarding `Cc1ccc(N=c2sccn2C)c(C)c1` [Compound (I), 2-(2,4-dimethylphenylimino)-3-methylthiazoline], the “mortality of the treated bees” value in [6] is given as “about 1%”. For the same compound, the “comparative efficacy against Varroa jacobsoni” value in [7] is given as “best product against both mites”. Moreover, in [8] (0.5% aqueous solution, 5 ml dropped, three times at 4-day intervals, 12 days, natural mortality about 0.5% expected), the “Killed organisms in %: bees” value is recorded as 0.4%. Further, the “mortality of the bees during the test” value in [8] (compared with expected range and untreated control group) was “exactly within the expected range and does not differ from the mortality of the untreated control group”. For the same compound, the Fallen mites in data set [9] (10 μl sugar solution fed per bee, 30 bees, total mites 35) was determined as 34. Further, the “Mortality rate in % (mites)” value in [9] (10 μl sugar solution fed per bee) was 97%. In addition, in data set [9] (feeding method in the laboratory), the “killing of parasitizing mites” value is recorded as “killing nearly all of the parasitizing mites”. Further, in data set [10], the “comparative efficacy against Tropilaelaps clareae” value was “best product against both mites”. Besides, the “Killed organisms in %: mites” value in data set [11] turned out to be 91.8%. The “LD50 in μg active ingredient/bee” value in data set [5] (24 hours after application) was 17 μg active ingredient/bee; in data set [5] (48 hours after application), 13 μg active ingredient/bee. In addition, the “activity against varroa mites versus compounds (A) and (B)” value in data set [5] (varroacidal test) is reported as “significantly better activity against varroa mites”.
